Results reported in patent publication US6737383B1, “Herbicidal oxadiazolidines” (priority 1999, dated 2004).

What was measured:
barnyardgrass = experiment: Test A barnyardgrass; format: in vivo, Echinochloa crus-galli; conditions: 0 to 10 scale where 0 is no effect and 10 is complete control
Procedure, shortened: (§1)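 Visual injury score, 0 (no effect) to 10 (complete control), vs untreated controls at ~11 d in greenhouse. Pre: soil drench on sandy loam. Post: spray to runoff, 1–2 leaf stage.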

velvetleaf = experiment: Test A velvetleaf; format: in vivo, Abutilon theophrasti; conditions: 0 to 10 scale where 0 is no effect and 10 is complete control
Procedure, shortened: as §1

Johnson grass = experiment: Test D Johnson grass; format: in vivo, Sorghum halepense; conditions: Rate 125 g/ha, Preemergence; 0 to 100 scale, 0 no injury, 100 complete control
Procedure, shortened: (§2)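 Visual injury ratings, 0 = no injury to 100 = complete control, taken 14 to 21 days after treatment. Test chemicals were in a surfactant-containing non-phytotoxic solvent; preemergence treatments went onto the sandy loam surface of seeded greenhouse pots within one day of sowing.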

goosegrass = experiment: Test D goosegrass; format: in vivo, Eleusine indica; conditions: Rate 125 g/ha, Preemergence; 0 to 100 scale, 0 no injury, 100 complete control
Procedure, shortened: as §2

guineagrass = experiment: Test D guineagrass; format: in vivo, Panicum maximum; conditions: Rate 125 g/ha, Preemergence; 0 to 100 scale, 0 no injury, 100 complete control
Procedure, shortened: as §2

dallisgrass = experiment: Test D dallisgrass; format: in vivo, Paspalum dilatatum; conditions: Rate 125 g/ha, Preemergence; 0 to 100 scale, 0 no injury, 100 complete control
Procedure, shortened: as §2

tall mallow = experiment: Test D tall mallow; format: in vivo, Malva sylvestris; conditions: Rate 125 g/ha, Preemergence; 0 to 100 scale, 0 no injury, 100 complete control
Procedure, shortened: as §2

surinam grass = experiment: Test D surinam grass; format: in vivo, Brachiaria decumbens; conditions: Rate 125 g/ha, Preemergence; 0 to 100 scale, 0 no injury, 100 complete control
Procedure, shortened: as §2

purple nutsedge = experiment: Test D purple nutsedge; format: in vivo, Cyperus rotundus; conditions: Rate 125 g/ha, Preemergence; 0 to 100 scale, 0 no injury, 100 complete control
Procedure, shortened: as §2

pitted morningglory = experiment: Test D pitted morningglory; format: in vivo, Ipomoea lacunosa; conditions: Rate 125 g/ha, Preemergence; 0 to 100 scale, 0 no injury, 100 complete control
Procedure, shortened: as §2

Spanishneedles = experiment: Test D Spanishneedles; format: in vivo, Bidens bipinnata; conditions: Rate 125 g/ha, Preemergence; 0 to 100 scale, 0 no injury, 100 complete control
Procedure, shortened: as §2

bermuda-grass = experiment: Test D bermudagrass; format: in vivo, Cynodon dactylon; conditions: Rate 125 g/ha, Preemergence; 0 to 100 scale, 0 no injury, 100 complete control
Procedure, shortened: as §2

Alexandergrass = experiment: Test D Alexandergrass; format: in vivo, Brachiaria plantaginea; conditions: Rate 125 g/ha, Preemergence; 0 to 100 scale, 0 no injury, 100 complete control
Procedure, shortened: as §2

large crabgrass = experiment: Test D large crabgrass; format: in vivo, Digitaria sanguinalis; conditions: Rate 125 g/ha, Preemergence; 0 to 100 scale, 0 no injury, 100 complete control
Procedure, shortened: as §2

common groundsel = experiment: Test D common groundsel; format: in vivo, Senecio vulgaris; conditions: Rate 125 g/ha, Preemergence; 0 to 100 scale, 0 no injury, 100 complete control
Procedure, shortened: as §2

itchgrass = experiment: Test D itchgrass; format: in vivo, Rottboellia exaltata; conditions: Rate 125 g/ha, Preemergence; 0 to 100 scale, 0 no injury, 100 complete control
Procedure, shortened: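 Scoring used a 0–100 visual injury scale, with 0 meaning no effect and 100 complete control, assessed 14–21 days after application alongside untreated pots. Preemergence treatments went onto sandy loam surfaces of separately potted seeds within a day of sowing.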

Green foxtail = experiment: Test D green foxtail; format: in vivo; conditions: Rate 125 g/ha, Preemergence; 0 to 100 scale, 0 no injury, 100 complete control
Procedure, shortened: as §2

sandbur = experiment: Test D sandbur; format: in vivo, Cenchrus echinatus; conditions: Rate 125 g/ha, Preemergence; 0 to 100 scale, 0 no injury, 100 complete control
Procedure, shortened: as §2

SMILES: CCc1cccc(C)c1-n1c(=O)on(C(=O)N(c2ccc(F)cc2)C(C)C)c1=O [Compound 52]
- Plant response rating, Barnyardgrass (barnyardgrass; Postemergence, Rate 1000 g/ha): 5
- Plant response rating, Barnyardgrass (barnyardgrass; Pre-emergence, Rate 2000 g/ha): 9
- Plant response rating, Velvetleaf (velvetleaf; Postemergence, Rate 1000 g/ha): 1
- Plant response rating, Velvetleaf (velvetleaf; Pre-emergence, Rate 2000 g/ha): 0

SMILES: Cc1cccc(Cl)c1-n1c(=O)on(C(=O)N(c2ccc(F)cc2)C(C)C)c1=O [Compound 53]
- Plant response rating, Barnyardgrass (barnyardgrass; Postemergence, Rate 1000 g/ha): 3
- Plant response rating, Barnyardgrass (barnyardgrass; Pre-emergence, Rate 2000 g/ha): 8
- Plant response rating, Velvetleaf (velvetleaf; Postemergence, Rate 1000 g/ha): 1
- Plant response rating, Velvetleaf (velvetleaf; Pre-emergence, Rate 2000 g/ha): 0

SMILES: CC(C)N(C(=O)n1oc(=O)n(C(C)C)c1=O)c1ccc(Cl)cc1 [Compound 114]
- Plant response rating Johnsongrass (Johnson grass): 0
- Plant response rating, Goosegrass (goosegrass): 100
- Plant response rating, Guineagrass (guineagrass): 100
- Plant response rating, Dallisgrass (dallisgrass): 100
- Tall Mallow plant response rating (tall mallow): 10
- Surinam grass plant response rating (surinam grass): 75
- Purple nutsedge plant response rating (purple nutsedge): 20
- Plant response rating, Barnyardgrass (barnyardgrass; Postemergence, Rate 1000 g/ha): 8
- Plant response rating, Barnyardgrass (barnyardgrass; Pre-emergence, Rate 2000 g/ha): 10
- Plant response rating, P. morninglory (pitted morningglory): 0
- Spanishneedles plant response rating (Spanishneedles): 0
- Plant response rating, Bermudagrass (bermuda-grass): 100
- Plant response rating, Alexandergrass (Alexandergrass): 98
- Plant response rating Large crabgrass (large crabgrass): 100
- Plant response rating, Com. groundsel (common groundsel): 85
- Plant response rating, Itchgrass (itchgrass): 20
- Green foxtail plant response rating (Green foxtail): 100
- Plant response rating, Green foxtail (Green foxtail): 100
- Plant response rating, Velvetleaf (velvetleaf; Postemergence, Rate 1000 g/ha): 5
- Plant response rating, Velvetleaf (velvetleaf; Pre-emergence, Rate 2000 g/ha): 6
- Sandbur plant response rating (sandbur): 85

SMILES: CC(C)N(C(=O)n1oc(=O)n(N(C)C)c1=O)c1ccccc1 [Compound 225]
- Plant response rating, Barnyardgrass (barnyardgrass; Postemergence, Rate 1000 g/ha): 9
- Plant response rating, Barnyardgrass (barnyardgrass; Pre-emergence, Rate 2000 g/ha): 10
- Plant response rating, Velvetleaf (velvetleaf; Postemergence, Rate 1000 g/ha): 3
- Plant response rating, Velvetleaf (velvetleaf; Pre-emergence, Rate 2000 g/ha): 7
